These are literature values, as cited in US12403291B2, “Submucosal bioresorbable drug eluting platform” (Intersect ENT, Inc., priority 2019, dated 2025).

For the data set the following is noted: MF per gram of tissue.

SMILES strings stand for the structures.

Take `C[C@@H]1C[C@H]2[C@@H]3CCC4=CC(=O)C=C[C@]4(C)[C@@]3(Cl)[C@@H](O)C[C@]2(C)[C@@]1(OC(=O)c1ccco1)C(=O)CCl` [Mometasone furoate, mometasone furoate]: the “concentration level of therapeutic effectiveness” value is 0.1 µg/g.
